From the NIST ThermoML archive (doi:10.1016/j.jct.2019.01.007)

Settings: Liquid

CCCCCCCCCCCCCC(=O)OC [methyl tetradecanoate]
Settings	vapor or sublimation pressure [kPa]
302.71 K	0.0001132
305.3 K	0.0001501
306.14 K	0.0001656
307.76 K	0.0001949
308.58 K	0.0002142
310.23 K	0.0002542
311.21 K	0.0002813
312.71 K	0.0003264
313.7 K	0.0003625
315.17 K	0.0004199
316.16 K	0.0004655
317.65 K	0.0005357
318.63 K	0.0005914
320.12 K	0.0006862
321.26 K	0.0007623
322.58 K	0.0008688
323.72 K	0.0009621
325.2 K	0.001105
326.19 K	0.001216
327.67 K	0.001391
328.66 K	0.001519
330.13 K	0.001743
331.13 K	0.001907
332.6 K	0.002171
333.6 K	0.002378
335.34 K	0.002751
336.07 K	0.002936
337.83 K	0.00341
338.55 K	0.003626
340.31 K	0.004207
341.01 K	0.00447
342.8 K	0.005171
343.48 K	0.005466
345.28 K	0.006333
345.96 K	0.006695
347.76 K	0.007722
348.43 K	0.008134
350.25 K	0.009383
350.91 K	0.009867
352.73 K	0.01136
355.48 K	0.01397
357.96 K	0.0168
360.44 K	0.02019
362.92 K	0.02417
365.4 K	0.02884
367.85 K	0.0341
370.34 K	0.0405
372.83 K	0.04791
375.44 K	0.05668
377.92 K	0.06667
380.41 K	0.0782
382.89 K	0.09144
385.37 K	0.1068
387.86 K	0.1243
390.36 K	0.1443
393.01 K	0.1685
395.5 K	0.1947
397.98 K	0.2245
400.45 K	0.2582
402.96 K	0.297
405.45 K	0.3402
407.93 K	0.3881
410.41 K	0.4428
412.89 K	0.5045
415.45 K	0.5764
417.93 K	0.6527
420.4 K	0.7365
422.88 K	0.8323

Transpiration method
Settings	vapor or sublimation pressure [kPa]
303.05 K	0.000126
304.65 K	0.000152
306.05 K	0.000172
309.15 K	0.000236
311.15 K	0.00032
313.15 K	0.00039
316.25 K	0.000485
319.25 K	0.000631
322.05 K	0.000891
325.05 K	0.00116
328.25 K	0.00151
331.05 K	0.0019
333.05 K	0.00252
333.15 K	0.00233
334.95 K	0.00275
338.05 K	0.00359
340.05 K	0.00416
343.05 K	0.00536
344.95 K	0.00629
348.05 K	0.00758
350.15 K	0.00963
353.05 K	0.0111
355.15 K	0.0133
358.05 K	0.0168
360.05 K	0.02
363.05 K	0.0242

CCCCCCCCCCCCC(=O)OC [methyl tridecanoate]
Transpiration method
Settings	vapor or sublimation pressure [kPa]
298.15 K	0.000239
300.15 K	0.000302
303.25 K	0.00041
305.15 K	0.000485
308.15 K	0.000697
310.15 K	0.000799
313.35 K	0.00112
315.05 K	0.0013
318.25 K	0.00174
320.15 K	0.00203
323.25 K	0.00258
325.05 K	0.00314
328.15 K	0.00415
330.15 K	0.00492
333.15 K	0.00626
335.15 K	0.00739
338.15 K	0.00934
340.15 K	0.0111
343.05 K	0.0131
345.15 K	0.0163
348.15 K	0.0197
350.15 K	0.023
353.15 K	0.0286
355.15 K	0.0338

CCCCCCCCCCC(=O)OC [methyl undecanoate]
Settings	vapor or sublimation pressure [kPa]
305.25 K	0.003577
307.81 K	0.004504
310.15 K	0.005571
312.67 K	0.006957
315.06 K	0.008553
317.52 K	0.01055
319.94 K	0.01283
322.42 K	0.01574
324.82 K	0.019
327.29 K	0.02304
329.69 K	0.02778
332.16 K	0.03345
334.54 K	0.03987
337.03 K	0.04783
339.43 K	0.05689
341.91 K	0.06735
